In ChEMBL document CHEMBL1201862, “PubChem BioAssay data set” (2004):
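Five concentrations, 48 hours, 96-well plates. Here, GI50 denotes the concentration required for 50% inhibition of growth.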 Calls of active or inactive are those of the source. Rule as the data show it: active = GI50 up to about 1.1 µM and inactive = higher.

Experiments:
Assay in all cases: inhibition of tumour cell growth, NCI panel, 48 h
[1] = system: 786-0
[2] = system: CAKI-1
[3] = system: HCT-15
[4] = system: HL-60
[5] = system: HOP-62
[6] = system: HOP-92
[7] = system: MOLT-4
[8] = system: NCI-H23
[9] = system: OVCAR-3
[10] = system: OVCAR-5
[11] = system: RPMI-8226
[12] = system: SF-539
[13] = system: SR
[14] = system: U-251
[15] = system: UACC-257
[16] = system: COLO 205
[17] = system: HCC 2998
[18] = system: SNB-19
[19] = system: UACC-62

Measured: GI50

CSCCCCCCCCCCOc1ccc(C=C2C(=C(C#N)C#N)c3ccccc3C2=C(C#N)C#N)cc1
active: [4] 0.0962 µM
inactive: [1] 17.5 µM | [2] 17.1 µM | [5] 17.9 µM | [6] 11.7 µM | [7] 19.2 µM | [8] 22.1 µM | [9] 16.4 µM | [10] 16.6 µM | [11] 28.8 µM | [12] 18 µM | [13] 15 µM | [14] 17.5 µM | [15] 18.9 µM
23.1 µM: [3]

COc1cc(CCN(C)C)cc(OC)c1OC
> 100 µM: [3]
inactive: [2] > 100 µM | [16] > 100 µM | [17] > 100 µM | [4] > 100 µM | [5] > 100 µM | [6] > 100 µM | [7] > 100 µM | [8] > 100 µM | [9] > 100 µM | [10] > 100 µM | [11] > 100 µM | [12] > 100 µM | [18] > 100 µM | [13] > 100 µM | [14] > 100 µM | [15] > 100 µM | [19] > 100 µM

[O-]c1on[n+]2c1c(Nc1ccc(Cl)cc1)nc1ccccc12
inactive: [1] > 100 µM | [16] > 100 µM | [17] > 100 µM | [4] > 100 µM | [6] > 100 µM | [7] > 100 µM | [8] > 100 µM | [9] > 100 µM | [10] > 100 µM | [11] > 100 µM | [12] > 100 µM | [18] > 100 µM | [13] > 100 µM | [14] > 100 µM | [15] > 100 µM | [19] > 100 µM

N#C/C(C(=O)Nc1ccc(Cl)cc1)=C(/N)N1CCOCC1
inactive: [1] > 100 µM | [2] > 100 µM | [16] > 100 µM | [17] > 100 µM | [5] 73.3 µM | [6] > 100 µM | [7] 64 µM | [8] > 100 µM | [9] 96.8 µM | [10] > 100 µM | [11] > 100 µM | [12] > 100 µM | [18] > 100 µM | [13] > 100 µM | [14] > 100 µM | [15] 47.4 µM | [19] 77.8 µM
> 100 µM: [3]

CC(=O)OCC1OC(N2C(=S)N[C@H]([C@@H](O)[C@H](O)[C@H](O)CO)[C@H]2O)C(OC(C)=O)C(OC(C)=O)C1OC(C)=O (some centres not stated)
inactive: [1] > 100 µM | [2] > 100 µM | [16] > 100 µM | [17] > 100 µM | [5] > 100 µM | [6] > 100 µM | [7] > 100 µM | [8] > 100 µM | [9] > 100 µM | [10] > 100 µM | [11] > 100 µM | [12] > 100 µM | [18] > 100 µM | [13] > 100 µM | [14] > 100 µM | [15] > 100 µM | [19] > 100 µM
> 100 µM: [3]

O=C1C=CC[C@H]2O[C@@H](COC(=O)Cc3ccccc3)C[C@H]2O1
inactive: [2] 38.5 µM | [16] 47.5 µM | [4] 16.5 µM | [5] 41.2 µM | [6] 28.1 µM | [7] 25.4 µM | [8] 20.9 µM | [9] 38.6 µM | [10] 42.6 µM | [11] 28.8 µM | [12] 29.6 µM | [18] 25.6 µM | [13] 32 µM | [14] > 10 µM | [15] 40.4 µM | [19] 41.9 µM
18.4 µM: [3]
